Legend:
IKK-beta = IKK-beta (Homo sapiens (Human), UniProt O14920); experiment: KINOMEscan; format: binding; conditions: 1 uM
[1] = biological target: ABL1 (F317L)-nonphosphorylated (Homo sapiens (Human), UniProt P00519, F317L); experiment: KINOMEscan; format: binding; conditions: 1 uM
PRKCD = PRKCD (Homo sapiens (Human), UniProt Q05655); experiment: KINOMEscan; format: binding; conditions: 1 uM
SIK2 = SIK2 (Homo sapiens (Human), UniProt Q9H0K1); experiment: Percent activity against SIK2 at 1 μM; format: biochemical
[2] = biological target: RPS6KA5 (Kin.Dom.1-N-terminal) (Homo sapiens (Human), UniProt O75582); experiment: KINOMEscan; format: binding; conditions: 1 uM
[3] = biological target: TYK2 (JH1domain-catalytic) (Homo sapiens (Human), UniProt P29597); experiment: KINOMEscan; format: binding; conditions: 1 uM
PRKCE = PRKCE (Homo sapiens (Human), UniProt Q02156); experiment: KINOMEscan; format: binding; conditions: 1 uM
AKT3 = AKT3 (Homo sapiens (Human), UniProt Q9Y243); experiment: KINOMEscan; format: binding; conditions: 1 uM
NEK3 = NEK3 (Homo sapiens (Human), UniProt P51956); experiment: KINOMEscan; format: binding; conditions: 1 uM
[4] = biological target: ABL1 (Q252H)-phosphorylated (Homo sapiens (Human), UniProt P00519, Q252H); experiment: KINOMEscan; format: binding; conditions: 1 uM
MARK3 = MARK3 (Homo sapiens (Human), UniProt P27448); experiment: KINOMEscan; format: binding; conditions: 1 uM
RIOK3 = RIOK3 (Homo sapiens (Human), UniProt O14730); experiment: KINOMEscan; format: binding; conditions: 1 uM
LOK = LOK (Homo sapiens (Human), UniProt O94804); experiment: KINOMEscan; format: binding; conditions: 1 uM
KIT (L576P) = KIT (L576P) (Homo sapiens (Human), UniProt P10721, L576P); experiment: KINOMEscan; format: binding; conditions: 1 uM
MLK1 = MLK1 (Homo sapiens (Human), UniProt P80192); experiment: KINOMEscan; format: binding; conditions: 1 uM
TAOK2 = TAOK2 (Homo sapiens (Human), UniProt Q9UL54); experiment: KINOMEscan; format: binding; conditions: 1 uM
ACVR2B = ACVR2B (Homo sapiens (Human), UniProt Q13705); experiment: KINOMEscan; format: binding; conditions: 1 uM
[5] = biological target: RSK3 (Kin.Dom.1-N-terminal) (Homo sapiens (Human), UniProt Q15349); experiment: KINOMEscan; format: binding; conditions: 1 uM
ROS1 = ROS1 (Homo sapiens (Human), UniProt P08922); experiment: KINOMEscan; format: binding; conditions: 1 uM
CDK9 = CDK9 (Homo sapiens (Human), UniProt P50750); experiment: KINOMEscan; format: binding; conditions: 1 uM
MERTK = MERTK (Homo sapiens (Human), UniProt Q12866); experiment: KINOMEscan; format: binding; conditions: 1 uM
FLT3 = FLT3 (Homo sapiens (Human), UniProt P36888); experiment: KINOMEscan; format: binding; conditions: 1 uM
MELK = MELK (Homo sapiens (Human), UniProt Q14680); experiment: KINOMEscan; format: binding; conditions: 1 uM
CLK2 = CLK2 (Homo sapiens (Human), UniProt P49760); experiment: KINOMEscan; format: binding; conditions: 1 uM
MKNK2 = MKNK2 (Homo sapiens (Human), UniProt Q9HBH9); experiment: KINOMEscan; format: binding; conditions: 1 uM
CDK2 = CDK2 (Homo sapiens (Human), UniProt P24941); experiment: KINOMEscan; format: binding; conditions: 1 uM
DMPK = DMPK (Homo sapiens (Human), UniProt Q09013); experiment: KINOMEscan; format: binding; conditions: 1 uM
CSK = CSK (Homo sapiens (Human), UniProt P41240); experiment: KINOMEscan; format: binding; conditions: 1 uM
ABL2 = ABL2 (Homo sapiens (Human), UniProt P42684); experiment: KINOMEscan; format: binding; conditions: 1 uM
FLT3 (D835H) = FLT3 (D835H) (Homo sapiens (Human), UniProt P36888, D835H); experiment: KINOMEscan; format: binding; conditions: 1 uM
STK39 = STK39 (Homo sapiens (Human), UniProt Q9UEW8); experiment: KINOMEscan; format: binding; conditions: 1 uM
EPHA1 = EPHA1 (Homo sapiens (Human), UniProt P21709); experiment: KINOMEscan; format: binding; conditions: 1 uM
RIPK1 = RIPK1 (Homo sapiens (Human), UniProt Q13546); experiment: KINOMEscan; format: binding; conditions: 1 uM
[6] = biological target: RSK2 (Kin.Dom.2-C-terminal) (Homo sapiens (Human), UniProt P51812); experiment: KINOMEscan; format: binding; conditions: 1 uM
ANKK1 = ANKK1 (Homo sapiens (Human), UniProt Q8NFD2); experiment: KINOMEscan; format: binding; conditions: 1 uM
PIP5K2C = PIP5K2C (Homo sapiens (Human), UniProt Q8TBX8); experiment: KINOMEscan; format: binding; conditions: 1 uM
TAK1 = TAK1 (Homo sapiens (Human), UniProt O43318); experiment: KINOMEscan; format: binding; conditions: 1 uM
ACVR2A = ACVR2A (Homo sapiens (Human), UniProt P27037); experiment: KINOMEscan; format: binding; conditions: 1 uM
CSNK1A1L = CSNK1A1L (Homo sapiens (Human), UniProt Q8N752); experiment: KINOMEscan; format: binding; conditions: 1 uM
LATS2 = LATS2 (Homo sapiens (Human), UniProt Q9NRM7); experiment: KINOMEscan; format: binding; conditions: 1 uM

Sequence of SIK2 (Q9H0K1 whole entry): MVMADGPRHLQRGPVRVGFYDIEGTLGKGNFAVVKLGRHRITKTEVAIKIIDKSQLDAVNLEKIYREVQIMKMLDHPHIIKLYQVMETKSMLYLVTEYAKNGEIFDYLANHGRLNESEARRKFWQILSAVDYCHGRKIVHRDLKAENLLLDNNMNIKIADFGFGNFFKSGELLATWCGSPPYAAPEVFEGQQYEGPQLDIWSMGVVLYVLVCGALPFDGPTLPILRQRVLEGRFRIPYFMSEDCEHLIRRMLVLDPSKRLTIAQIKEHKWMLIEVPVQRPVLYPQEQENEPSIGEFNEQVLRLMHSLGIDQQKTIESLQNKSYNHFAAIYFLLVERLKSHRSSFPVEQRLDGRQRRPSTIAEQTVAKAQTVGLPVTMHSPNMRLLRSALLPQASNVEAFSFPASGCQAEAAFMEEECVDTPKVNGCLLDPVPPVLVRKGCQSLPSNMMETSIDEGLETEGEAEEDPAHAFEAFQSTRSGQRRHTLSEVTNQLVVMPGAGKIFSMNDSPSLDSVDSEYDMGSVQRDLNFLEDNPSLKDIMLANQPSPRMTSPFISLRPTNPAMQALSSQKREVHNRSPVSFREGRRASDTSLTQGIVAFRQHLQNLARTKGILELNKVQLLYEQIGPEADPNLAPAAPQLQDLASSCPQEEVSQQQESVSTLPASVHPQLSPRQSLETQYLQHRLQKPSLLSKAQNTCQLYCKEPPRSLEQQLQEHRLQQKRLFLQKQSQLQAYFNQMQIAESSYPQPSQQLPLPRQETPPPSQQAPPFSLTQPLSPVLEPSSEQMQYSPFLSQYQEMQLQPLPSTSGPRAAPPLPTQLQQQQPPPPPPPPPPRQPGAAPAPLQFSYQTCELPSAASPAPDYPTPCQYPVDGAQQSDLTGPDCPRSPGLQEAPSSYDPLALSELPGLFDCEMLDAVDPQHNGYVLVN
Sequence of ANKK1 (Q8NFD2 whole entry): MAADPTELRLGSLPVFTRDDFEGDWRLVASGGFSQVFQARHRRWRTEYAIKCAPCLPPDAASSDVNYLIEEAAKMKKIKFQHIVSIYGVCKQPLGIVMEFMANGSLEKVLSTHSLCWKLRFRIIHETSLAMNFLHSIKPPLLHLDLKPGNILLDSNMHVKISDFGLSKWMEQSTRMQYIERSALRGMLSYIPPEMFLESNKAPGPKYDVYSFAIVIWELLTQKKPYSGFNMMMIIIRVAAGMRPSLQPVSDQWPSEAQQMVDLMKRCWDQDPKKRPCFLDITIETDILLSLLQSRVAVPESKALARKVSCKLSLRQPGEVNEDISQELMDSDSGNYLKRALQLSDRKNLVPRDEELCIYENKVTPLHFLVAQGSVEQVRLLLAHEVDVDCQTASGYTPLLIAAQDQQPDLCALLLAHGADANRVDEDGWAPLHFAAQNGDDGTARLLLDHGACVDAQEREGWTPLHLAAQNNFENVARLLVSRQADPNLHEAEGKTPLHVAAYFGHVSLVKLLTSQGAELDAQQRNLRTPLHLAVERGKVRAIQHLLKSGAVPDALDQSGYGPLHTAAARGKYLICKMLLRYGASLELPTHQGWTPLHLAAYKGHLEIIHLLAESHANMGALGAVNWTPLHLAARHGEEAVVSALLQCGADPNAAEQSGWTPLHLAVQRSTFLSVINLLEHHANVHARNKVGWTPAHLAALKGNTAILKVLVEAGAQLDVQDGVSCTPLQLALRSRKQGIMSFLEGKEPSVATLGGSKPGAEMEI
Sequence of MERTK (Q12866 21-999): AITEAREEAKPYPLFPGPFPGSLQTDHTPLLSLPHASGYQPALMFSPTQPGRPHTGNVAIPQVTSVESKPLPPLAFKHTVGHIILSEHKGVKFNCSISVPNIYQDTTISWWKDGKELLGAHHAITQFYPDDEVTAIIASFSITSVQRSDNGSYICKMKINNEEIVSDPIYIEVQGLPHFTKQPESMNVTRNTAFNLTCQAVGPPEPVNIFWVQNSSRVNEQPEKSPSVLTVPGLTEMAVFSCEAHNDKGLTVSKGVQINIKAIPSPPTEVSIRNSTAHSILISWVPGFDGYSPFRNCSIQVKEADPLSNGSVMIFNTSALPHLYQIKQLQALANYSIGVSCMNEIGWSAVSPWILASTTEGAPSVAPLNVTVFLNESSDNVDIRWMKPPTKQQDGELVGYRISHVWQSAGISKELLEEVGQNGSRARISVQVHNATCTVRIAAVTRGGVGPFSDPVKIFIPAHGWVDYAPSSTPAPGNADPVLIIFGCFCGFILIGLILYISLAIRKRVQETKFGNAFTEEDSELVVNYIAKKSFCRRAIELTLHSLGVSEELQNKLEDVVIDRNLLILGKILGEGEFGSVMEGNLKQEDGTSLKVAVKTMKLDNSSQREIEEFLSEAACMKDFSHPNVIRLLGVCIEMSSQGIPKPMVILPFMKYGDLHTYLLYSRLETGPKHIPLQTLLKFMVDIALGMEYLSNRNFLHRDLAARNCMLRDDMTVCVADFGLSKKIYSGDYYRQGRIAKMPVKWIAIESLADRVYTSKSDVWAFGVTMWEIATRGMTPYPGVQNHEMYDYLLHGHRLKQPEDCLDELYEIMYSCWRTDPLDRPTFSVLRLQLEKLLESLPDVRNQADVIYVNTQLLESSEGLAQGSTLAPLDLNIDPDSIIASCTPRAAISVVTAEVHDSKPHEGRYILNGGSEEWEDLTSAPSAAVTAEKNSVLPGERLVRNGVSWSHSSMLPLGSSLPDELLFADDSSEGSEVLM
Sequence of MKNK2 (Q9HBH9 whole entry): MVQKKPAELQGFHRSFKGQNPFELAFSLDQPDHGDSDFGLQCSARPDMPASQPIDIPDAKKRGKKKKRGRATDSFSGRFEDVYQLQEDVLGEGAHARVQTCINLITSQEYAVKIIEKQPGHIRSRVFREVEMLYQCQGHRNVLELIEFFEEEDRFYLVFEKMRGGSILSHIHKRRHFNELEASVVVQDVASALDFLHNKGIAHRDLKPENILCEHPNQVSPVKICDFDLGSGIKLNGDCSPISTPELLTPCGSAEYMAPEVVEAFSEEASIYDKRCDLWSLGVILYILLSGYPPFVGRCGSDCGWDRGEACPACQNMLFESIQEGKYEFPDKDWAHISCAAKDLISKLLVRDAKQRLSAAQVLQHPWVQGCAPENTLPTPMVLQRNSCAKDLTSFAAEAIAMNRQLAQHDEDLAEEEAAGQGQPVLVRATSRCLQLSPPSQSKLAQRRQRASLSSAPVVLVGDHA
Sequence of IKK-beta (O14920 whole entry): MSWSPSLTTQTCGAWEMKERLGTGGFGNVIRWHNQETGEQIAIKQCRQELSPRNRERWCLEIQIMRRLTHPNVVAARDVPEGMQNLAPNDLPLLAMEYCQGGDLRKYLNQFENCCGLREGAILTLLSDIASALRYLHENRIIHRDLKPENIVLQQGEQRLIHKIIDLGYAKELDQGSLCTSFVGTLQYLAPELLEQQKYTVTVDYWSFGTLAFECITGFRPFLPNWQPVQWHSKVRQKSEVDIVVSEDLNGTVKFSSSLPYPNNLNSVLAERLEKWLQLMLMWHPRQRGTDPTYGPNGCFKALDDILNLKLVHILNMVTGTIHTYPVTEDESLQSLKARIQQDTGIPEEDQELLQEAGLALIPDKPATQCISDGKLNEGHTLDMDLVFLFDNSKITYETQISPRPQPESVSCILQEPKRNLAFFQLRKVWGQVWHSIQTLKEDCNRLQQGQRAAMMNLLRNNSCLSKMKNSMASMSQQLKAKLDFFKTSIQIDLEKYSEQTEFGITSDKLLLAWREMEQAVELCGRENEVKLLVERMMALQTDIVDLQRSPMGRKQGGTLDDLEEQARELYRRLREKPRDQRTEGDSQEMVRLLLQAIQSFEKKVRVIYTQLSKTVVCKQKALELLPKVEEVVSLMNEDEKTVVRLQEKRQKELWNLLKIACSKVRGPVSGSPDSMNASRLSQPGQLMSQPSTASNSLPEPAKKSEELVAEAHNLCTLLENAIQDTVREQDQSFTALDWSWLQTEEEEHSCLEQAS
Sequence of LOK (O94804 whole entry): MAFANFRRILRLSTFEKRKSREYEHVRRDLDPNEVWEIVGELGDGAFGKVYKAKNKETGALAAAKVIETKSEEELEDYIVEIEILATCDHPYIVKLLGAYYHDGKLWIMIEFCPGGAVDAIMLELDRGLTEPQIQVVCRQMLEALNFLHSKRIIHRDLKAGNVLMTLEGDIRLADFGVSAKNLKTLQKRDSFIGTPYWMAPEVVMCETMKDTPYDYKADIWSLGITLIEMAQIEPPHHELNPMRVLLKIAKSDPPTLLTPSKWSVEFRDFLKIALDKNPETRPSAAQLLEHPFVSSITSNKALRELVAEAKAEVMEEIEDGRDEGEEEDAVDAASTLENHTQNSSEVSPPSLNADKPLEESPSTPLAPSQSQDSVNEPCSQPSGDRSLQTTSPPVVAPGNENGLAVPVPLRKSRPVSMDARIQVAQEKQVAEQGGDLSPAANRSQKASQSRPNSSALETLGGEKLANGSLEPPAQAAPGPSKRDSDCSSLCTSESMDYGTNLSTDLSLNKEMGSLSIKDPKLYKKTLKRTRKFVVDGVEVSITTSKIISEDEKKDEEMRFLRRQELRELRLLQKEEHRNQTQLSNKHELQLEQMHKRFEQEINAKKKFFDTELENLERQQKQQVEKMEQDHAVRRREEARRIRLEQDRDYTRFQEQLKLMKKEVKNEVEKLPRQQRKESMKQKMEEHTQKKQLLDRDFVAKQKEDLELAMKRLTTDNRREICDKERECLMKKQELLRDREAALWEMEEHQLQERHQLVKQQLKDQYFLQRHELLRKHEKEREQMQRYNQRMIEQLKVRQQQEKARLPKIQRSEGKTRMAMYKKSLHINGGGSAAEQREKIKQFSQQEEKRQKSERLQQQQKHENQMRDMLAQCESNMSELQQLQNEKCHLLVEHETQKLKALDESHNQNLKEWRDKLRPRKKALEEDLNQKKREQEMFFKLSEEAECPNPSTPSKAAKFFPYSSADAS

COc1ccc(N2C(=O)N(c3c(C)cccc3C)Cc3cnc(Nc4ccc(N5CCN(C)CC5)cc4)nc32)c(OC)c1 [HG-11-136-01]
KINOMEscan IKK-beta (IKK-beta): 80
KINOMEscan ABL1 (F317L)-nonphosphorylated [1]: 0
KINOMEscan PRKCD (PRKCD): 94
Enzyme activity at 1 μM (%) SIK2 (SIK2; 1 μM): 2.8%
SIK2 % ACTIVITY (SIK2; compound at 1 μM, approximate Km for ATP): 2.8%
KINOMEscan RPS6KA5 (Kin.Dom.1-N-terminal) [2]: 100
KINOMEscan TYK2 (JH1domain-catalytic) [3]: 5.6
KINOMEscan PRKCE (PRKCE): 61
KINOMEscan AKT3 (AKT3): 100
KINOMEscan NEK3 (NEK3): 39
KINOMEscan ABL1 (Q252H)-phosphorylated [4]: 0.25
KINOMEscan MARK3 (MARK3): 1.6
KINOMEscan RIOK3 (RIOK3): 25
KINOMEscan LOK (LOK): 0
KINOMEscan KIT (L576P) (KIT (L576P)): 0
KINOMEscan MLK1 (MLK1): 6
KINOMEscan TAOK2 (TAOK2): 0
KINOMEscan ACVR2B (ACVR2B): 3.2
KINOMEscan RSK3 (Kin.Dom.1-N-terminal) [5]: 40
KINOMEscan ROS1 (ROS1): 63
KINOMEscan CDK9 (CDK9): 91
KINOMEscan MERTK (MERTK): 5.6
KINOMEscan FLT3 (FLT3): 34
KINOMEscan MELK (MELK): 36
KINOMEscan CLK2 (CLK2): 35
KINOMEscan MKNK2 (MKNK2): 99
KINOMEscan CDK2 (CDK2): 97
KINOMEscan DMPK (DMPK): 88
KINOMEscan CSK (CSK): 0.3
KINOMEscan ABL2 (ABL2): 0.35
KINOMEscan FLT3 (D835H) (FLT3 (D835H)): 16
KINOMEscan STK39 (STK39): 28
KINOMEscan EPHA1 (EPHA1): 0
KINOMEscan RIPK1 (RIPK1): 35
KINOMEscan RSK2 (Kin.Dom.2-C-terminal) [6]: 51
KINOMEscan ANKK1 (ANKK1): 68
KINOMEscan PIP5K2C (PIP5K2C): 100
KINOMEscan TAK1 (TAK1): 11
KINOMEscan ACVR2A (ACVR2A): 5
KINOMEscan CSNK1A1L (CSNK1A1L): 97
KINOMEscan LATS2 (LATS2): 60

Reference: patent publication US11725011B2, “Bicyclic urea kinase inhibitors and uses thereof” (The Broad Institute, Inc., priority 2016, dated 2023)
